The target in assay [1] is T1, purified human Factor XIa (Homo sapiens, UniProt P03951).
T1 construct: purified human Factor XIa; purchased Sekisui Diagnostics
In words: Factor XIa Assay. It counts as biochemical. To be noted: purified human Factor XIa 40 pM; substrate Z-Gly-Pro-Arg-AFC 100 μM; 50 mM HEPES pH 7.4; read-out: Hu FXIa Ki. As for the experimental part: The effectiveness of a compound of the present invention as an inhibitor of Coagulation Factor XIa can be determined using a relevant purified serine protease, and an appropriate synthetic substrate. The rate of hydrolysis of the chromogenic or fluorogenic substrate by the relevant serine protease was measured both in the absence and presence of compounds of the present invention. Assays were conducted at room temperature or at 37° C. […] A decrease in the rate of fluorescence change in the presence of inhibitor is indicative of enzyme inhibition. Such methods are known to one skilled in the art. The results of this assay are expressed as the inhibitory constant, Ki.
Factor XIa determinations were made in 50 mM HEPES buffer at pH 7.4 containing 150 mM NaCl, 5 mM CaCl2, and 0.1% PEG 8000 (polyethylene glycol; JT Baker or Fisher Scientific). Determinations were made using purified human Factor XIa at a final concentration of 40 pM (Sekisui Diagnostics) and he synthetic substrate, Z-Gly-Pro-Arg-AFC, TFA salt (Sigma #C0980) at a concentration of 100 μM.
Activity assays were performed by diluting a stock solution of substrate at least tenfold to a final concentration ≤0.1 Km into a solution containing enzyme or enzyme equilibrated with inhibitor. Times required to achieve equilibration between enzyme and inhibitor were determined in control experiments. Initial velocities of product formation in the absence (Vo) or presence of inhibitor (Vi) were measured. Assuming competitive inhibition, and that unity is negligible compared Km/[S], [I]/e, and [I]/e (where [S], [I], and e respectively represent the total concentrations, of substrate, inhibitor and enzyme), the equilibrium constant (Ki) for dissociation of the inhibitor from the enzyme can be obtained from the dependence of Vo/Vi on [I] shown in the following equation. Vo/Vi=1+[I]/Ki
The activities shown by this assay indicate that the compounds of the invention may be therapeutically useful for treating or preventing various cardiovascular and/or cerebrovascular thromboembolic conditions in patients suffering from unstable angina, acute coronary syndrome, refractory angina, myocardial infarction, transient ischemic attacks, atrial fibrillation, stroke such as thrombotic stroke or embolic stroke, venous thrombosis, coronary and cerebral arterial thrombosis, cerebral and pulmonary embolism, atherosclerosis, deep vein thrombosis, disseminated intravascular coagulation, and reocclusion or restenosis of recanalized vessels. The Ki values measured for each of the example compounds of the invention using this assay are reported in the tables above (as “Hu FXIa Ki (nM)”).

In assay [2] the target is T2, purified Human plasma kallikrein (Homo sapiens, UniProt P03952).
T2 construct: yields a heavy chain (371 amino acids) and a light chain (248 amino acids); purchased Enzyme Research Laboratories
T2 sequence (P03952 391-638 limits assumed): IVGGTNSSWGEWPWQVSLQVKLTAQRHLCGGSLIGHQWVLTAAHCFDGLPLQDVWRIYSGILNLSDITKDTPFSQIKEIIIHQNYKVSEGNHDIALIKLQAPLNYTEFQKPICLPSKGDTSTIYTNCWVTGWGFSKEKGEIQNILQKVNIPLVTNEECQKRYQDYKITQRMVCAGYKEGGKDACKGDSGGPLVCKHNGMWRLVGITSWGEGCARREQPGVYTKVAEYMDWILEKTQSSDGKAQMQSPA
T2 sequence (P03952 20-390 partner limits assumed): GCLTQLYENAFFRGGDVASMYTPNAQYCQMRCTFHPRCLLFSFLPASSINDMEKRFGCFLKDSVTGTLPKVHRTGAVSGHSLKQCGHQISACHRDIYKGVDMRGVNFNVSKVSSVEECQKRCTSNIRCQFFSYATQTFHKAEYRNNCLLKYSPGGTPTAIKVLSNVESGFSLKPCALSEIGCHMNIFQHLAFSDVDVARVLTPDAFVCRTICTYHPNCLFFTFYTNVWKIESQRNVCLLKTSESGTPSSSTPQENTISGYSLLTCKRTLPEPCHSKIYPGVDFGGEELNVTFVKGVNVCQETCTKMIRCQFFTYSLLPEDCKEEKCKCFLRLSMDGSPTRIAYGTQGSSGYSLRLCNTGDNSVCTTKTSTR
In words: Kallikrein Assay. It counts as biochemical. The note with it: purified Human plasma kallikrein 0.5 nM; substrate Acetyl-K-P-R-AFC; 50 mM HEPES pH 7.4; Ki from IC50 by Cheng Prusoff equation; read-out: Hu P. Kallikrein. As for the experimental part:
The effectiveness of a compound of the present invention as an inhibitor of Kallikrein can be determined using a relevant purified serine protease, and an appropriate synthetic substrate. The rate of hydrolysis of the chromogenic or fluorogenic substrate by the relevant serine protease was measured both in the absence and presence of compounds of the present invention. Assays were conducted at room temperature or at 37° C. […] A decrease in the rate of fluorescence change in the presence of inhibitor is indicative of enzyme inhibition. Such methods are known to one skilled in the art. The results of this assay are expressed as the inhibitory constant, Ki. Kallikrein determinations were made in 50 mM HEPES buffer at pH 7.4 containing 150 mM NaCl, 5 mM CaCl2, and 0.1% PEG 8000 (polyethylene glycol; Fisher Scientific). Determinations were made using purified Human plasma kallikrein at a final concentration of 0.5 nM (Enzyme Research Laboratories) and the synthetic substrate, Acetyl-K—P-R-AFC (Sigma # C6608) at a concentration of […]. Activity assays were performed by diluting a stock solution of substrate at least tenfold to a final concentration ≤0.2 Km into a solution containing enzyme or enzyme equilibrated with inhibitor. Times required to achieve equilibration between enzyme and inhibitor were determined in control experiments. The reactions were performed under linear progress curve conditions and fluorescence increase measured at 405 Ex/510 Em nm. Values were converted to percent inhibition of the control reaction (after subtracting 100% Inhibition value). IC50 was determined by inflection point from a four parameter logistic curve fit. Ki was calculated using the Cheng Prusoff equation, Ki=IC50/(1+([S]/Km)). The activities shown by this assay indicate that the compounds of the invention may be therapeutically useful for treating or preventing various cardiovascular and/or cerebrovascular thromboembolic conditions in patients suffering from unstable angina, acute coronary syndrome, refractory angina, myocardial infarction, transient ischemic attacks, atrial fibrillation, stroke such as thrombotic stroke or embolic stroke, venous thrombosis, coronary and cerebral arterial thrombosis, cerebral and pulmonary embolism, atherosclerosis, deep vein thrombosis, disseminated intravascular coagulation, and reocclusion or restenosis of recanalized vessels.

Among the data in patent US10344039B2, “Macrocyclic spirocarbamate derivatives as factor XIa inhibitors, pharmaceutically acceptable compositions and their use” (MERCK SHARP & DOHME CORP., priority 2015, dated 2019) are Ki values, retold here.

Structures are written as SMILES. pKi: −log10 of the molar value.

T1 sequence (P03951 388-625 limits assumed): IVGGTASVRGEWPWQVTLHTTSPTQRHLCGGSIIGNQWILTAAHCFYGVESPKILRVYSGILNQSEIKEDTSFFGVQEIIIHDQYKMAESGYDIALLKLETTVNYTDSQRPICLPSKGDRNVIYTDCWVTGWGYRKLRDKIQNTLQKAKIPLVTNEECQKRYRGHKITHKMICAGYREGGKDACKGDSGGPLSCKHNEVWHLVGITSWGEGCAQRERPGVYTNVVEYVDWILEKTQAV
T1 sequence (P03951 19-387 partner limits assumed): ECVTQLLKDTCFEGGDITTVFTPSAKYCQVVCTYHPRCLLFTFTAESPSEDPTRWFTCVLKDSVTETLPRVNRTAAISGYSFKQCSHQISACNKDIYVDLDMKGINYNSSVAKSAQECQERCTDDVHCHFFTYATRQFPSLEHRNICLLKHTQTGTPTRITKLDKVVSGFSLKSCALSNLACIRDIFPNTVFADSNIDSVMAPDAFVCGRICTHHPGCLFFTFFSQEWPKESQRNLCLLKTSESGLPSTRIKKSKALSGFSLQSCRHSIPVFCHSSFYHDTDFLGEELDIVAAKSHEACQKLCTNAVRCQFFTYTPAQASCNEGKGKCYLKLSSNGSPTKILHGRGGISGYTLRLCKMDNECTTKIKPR

In the case of `COC(=O)Nc1ccc2c(c1)NC(=O)C(C)CCCC(C(=O)N1CCC[C@@]3(C1)OC(=O)Nc1ccc(Cl)cc13)c1cc-2ccn1` (single isomer, unassigned) [Example 15a], the pKi in assay [1] was 7.51; in assay [2] it was 8.77.

With `COC(=O)Nc1ccc2c(c1)NC(=O)CCCC[C@@H](C(=O)N1CC[C@@]3(C1)OC(=O)Nc1ccc(Cl)c(F)c13)c1cccc-2n1` (single isomer, unassigned) [Example 23b], the pKi in assay [1] is 7.35; in assay [2], 8.07.

As for `COC(=O)Nc1ccc2c(c1)NC(=O)CC/C=C\C[C@@H](C(=O)N1CCC[C@@]3(C1)OC(=O)Nc1ccc(Cl)c(F)c13)c1cc-2ccn1` [Example 22a, methyl ((R,Z)-10-((R)-6-chloro-5-fluoro-2-oxo-1,2-dihydrospiro[benzo[d][1,3]oxazine-4,3′-piperidine]-1′-carbonyl)-4-oxo-3-aza-1(4,2)-pyridina-2(1,2)-benzenacyclodecaphanen-2^4-yl)carbamate], the pKi was 8.54 in assay [1] and 9.11 in assay [2].

In the case of `COC(=O)Nc1ccc2c(c1)NC(=O)CCCC[C@@H](C(=O)N1CCC[C@@]3(C1)OC(=O)Nc1ccc(Cl)c(F)c13)c1cc(F)cc-2c1` [Example 30b, methyl ((R)-9-((R)-6-chloro-5-fluoro-2-oxo-1,2-dihydrospiro[benzo[d][1,3]oxazine-4,3′-piperidine]-1′-carbonyl)-1^5-fluoro-4-oxo-3-aza-1(1,3),2(1,2)-dibenzenacyclononaphane-2^4-yl)carbamate], the values for the pKi in assay [1] and in assay [2] were 7.16 and 8.82, respectively.

As for `COC(=O)Nc1ccc2c(c1)NC(=O)[C@H](C)CCCC(C(=O)N1CCC[C@@]3(C1)OC(=O)Nc1ccc(Cl)c(F)c13)c1nc-2c(Cl)[nH]1` (stereo partly drawn) [Example 10, methyl ((5R,Z)-1^5-chloro-9-((R)-6-chloro-5-fluoro-2-oxo-1,2-dihydrospiro[benzo[d][1,3]oxazine-4,3′-piperidine]-1′-carbonyl)-5-methyl-4-oxo-1^1H-3-aza-1(4,2)-imidazola-2(1,2)-benzenacyclononaphane-2^4-yl)carbamate], the pKi in assay [1] was 9.17; in assay [2], 9.02.

Regarding `O=C1CCCCC(C(=O)N2CC[C@@]3(C2)OC(=O)Nc2ccc(Cl)c(F)c23)c2cc(ccn2)-c2cc3ccc(=O)[nH]c3cc2N1` (mixture of isomers) [Example 26, 3-((R)-6-chloro-5-fluoro-2-oxo-1,2-dihydrospiro[benzo[d][1,3]oxazine-4,3′-pyrrolidine]-1′-carbonyl)-1^1,1^2-dihydro-9-aza-1(6,7)-quinolina-2(4,2)-pyridinacyclononaphane-1^2,8-dione], the pKi in assay [1] is 8.41; in assay [2], 8.91.

For the compound `CCOC(=O)C1CCCCC(C(=O)N2CCC[C@@]3(C2)OC(=O)Nc2ccc(Cl)c(F)c23)c2nc(c[nH]2)-c2ccc(NC(=O)OC)cc2N1` (single isomer, unassigned) [Example 32b], the pKi in assay [1] is 9.21; in assay [2], 8.85.

In the case of `COC(=O)Nc1ccc2c(c1)NC(=O)CCCC[C@@H](C(=O)N1CCC[C@@]3(C1)OC(=O)Nc1ccc(Cl)c(F)c13)c1nc-2c(C)[nH]1` (single isomer, unassigned) [Example 12b], the figures for the pKi in assay [1] and in assay [2] were 9.03 and 8.89, respectively.

Turning to `COC(=O)Nc1ccc2c(c1)NC(=O)CCCC[C@H](NC(=O)N1CC[C@@]3(C1)OC(=O)Nc1ccc(Cl)cc13)c1nc-2c[nH]1` [Example 38, methyl ((S,Z)-9-((R)-6-chloro-2-oxo-1,2-dihydrospiro[benzo[d][1,3]oxazine-4,3′-pyrrolidine]-1′-carboxamido)-4-oxo-11H-3-aza-1(4,2)-imidazola-2(1,2)-benzenacyclononaphane-2^4-yl)carbamate], the pKi in assay [1] was 7.79; in assay [2], 8.35.

Consider `COC(=O)Nc1ccc2c(c1)NC(=O)CCCCC(C(=O)N1CC[C@@]3(C1)OC(=O)Nc1ccc(Cl)c(F)c13)c1nc-2c(Cl)[nH]1` (mixture of isomers) [Example 9, methyl ((Z)-1^5-chloro-9-((R)-6-chloro-5-fluoro-2-oxo-1,2-dihydrospiro[benzo[d][1,3]oxazine-4,3′-pyrrolidine]-1′-carbonyl)-4-oxo-1^1H-3-aza-1(4,2)-imidazola-2(1,2)-benzenacyclononaphane-2^4-yl)carbamate], for which the pKi in assay [1] was 9.47; in assay [2] it was 9.24.

In the case of `COC(=O)Nc1ccc2c(c1)NC(=O)CCCC[C@@H](C(=O)N1CC[C@@]3(C1)OC(=O)Nc1ccc(Cl)c(F)c13)c1nc-2c(C)[nH]1` [Example 13b, methyl ((R,Z)-9-((R)-6-chloro-5-fluoro-2-oxo-1,2-dihydrospiro[benzo[d][1,3]oxazine-4,3′-pyrrolidine]-1′-carbonyl)-1^5-methyl-4-oxo-1^1H-3-aza-1(4,2)-imidazola-2(1,2)-benzenacyclononaphane-2^4-yl)carbamate], the figures for the pKi in assay [1] and in assay [2] were 9.22 and 8.95, respectively.

In the case of `COC(=O)Nc1ccc2c(c1)NC(=O)CCCCC(C(=O)N1CC[C@@]3(C1)OC(=O)Nc1ccc(Cl)cc13)c1cc(F)cc-2c1` (stereo partly drawn) [Example 28, methyl (9-((R)-6-chloro-2-oxo-1,2-dihydrospiro[benzo[d][1,3]oxazine-4,3′-pyrrolidine]-1′-carbonyl)-1^5-fluoro-4-oxo-3-aza-1(1,3),2(1,2)-dibenzenacyclononaphane-2^4-yl)carbamate], the pKi in assay [1] was 7.34; in assay [2], 7.90.

As to `COC(=O)Nc1ccc2c(c1)NC(=O)CCCC[C@@H](C(=O)N1CC[C@@]3(C1)OC(=O)Nc1ccc(Cl)cc13)c1cc-2ccn1` [Example 17a, methyl ((R)-9-((R)-6-chloro-2-oxo-1,2-dihydrospiro[benzo[d][1,3]oxazine-4,3′-pyrrolidine]-1′-carbonyl)-4-oxo-3-aza-1(4,2)-pyridina-2(1,2)-benzenacyclononaphane-2^4-yl)carbamate], the pKi in assay [1] is 8.04; in assay [2] it was 8.42.

As for `COC(=O)Nc1ccc2c(c1)NC(=O)CCCC[C@@H](C(=O)N1CCC[C@@]3(C1)OC(=O)Nc1ccc(Cl)cc13)c1nc-2c[nH]1` [Example 3a, methyl ((R,Z)-9-((R)-6-chloro-2-oxo-1,2-dihydrospiro[benzo[d][1,3]oxazine-4,3′-piperidine]-1′-carbonyl)-4-oxo-1^1H-3-aza-1(4,2)-imidazola-2(1,2)-benzenacyclononaphane-2^4-yl)carbamate], the results for the pKi in assay [1] and in assay [2] were 8.56 and 9.09, respectively.

For `COC(=O)Nc1ccc2c(c1)NC(=O)CCCC[C@@H](C(=O)N1CC[C@@]3(C1)OC(=O)Nc1ccc(Cl)cc13)c1nc-2c(Cl)[nH]1` (single isomer, unassigned) [Example 6a], the results for the pKi in assay [1] and in assay [2] were 9.43 and 9.16, respectively.
